Experimental findings from US12577245B2, “Sulfonyl benzamide derivatives as Bcl-2 inhibitors” (ASCENTAGE PHARMA (SUZHOU) CO., LTD., priority 2021, dated 2026) are described below.

pIC50: −log10 of the molar value.

The subject of one test is RS4; 11Bcl-2-V156D cells. The test is described as follows: CellTiter-Glo (CTG) cell viability assay in RS4;11-BCL2-V156D cells. The format is cell-based. To be noted: 10% FBS, 3 days. Here is the method:
(§1) RS4; 11Bcl-2-G101V, RS4; 11Bcl-2-D103E, RS4; 11Bcl-2-V156D and RS4; 11Bcl-2-G101V-D103E cells were obtained from Cobioer Biosciences. Cells were maintained in the RPMI-1640 medium with 10% FBS, 1% P/S and puromycin (1 μg/mL) at 37° C. and an atmosphere of 5% CO2.
(§2) • The effect of representative Compounds of the Disclosure on cell viability was determined using CellTiter-Glo® (CTG) luminescent cell viability assay (Promega, USA) according to the manufacturer's instructions. 95 μL of cell suspension (10000 cells/well) in culture medium were seeded into 96-well plates and cultured 4 hours. Each tested compound was serially diluted in blank culture medium, and 5 μL of the compound dilution was added to the corresponding well of the cell plate. After the addition of the tested compound, the cells were incubated at 37° C. in an atmosphere of 5% CO2 for 3 days. At the end of 3 days, 30 μL of CTG solution was added to each well of the plate and mix contents for 2 minutes on an orbital shaker. Allow the plate to incubate at room temperature for 15 mins to stabilize signal and record RLU on the Biotek plate reader. The readings were normalized to the vehicle cells, and the IC50 was calculated using GraphPad Prism 8 software.

For another test, the system named is RS4; 11Bcl-2-G101V cells. The test is described as follows: CellTiter-Glo (CTG) cell viability assay in RS4;11-Bcl-2-G101V cells. The format is cell-based. To be noted: 10% FBS, 3 days. In short, it runs like this: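 Luminescent ATP read-out (CellTiter-Glo) after 3-day compound treatment at 37 °C gave viability relative to vehicle, from which IC50 was fitted. Mutant Bcl-2 RS4;11 cells were seeded at 10000 per well and rested 4 h before dosing.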

Another test concerns RS4; 11Bcl-2-D103E cells. Nature of the test: CellTiter-Glo (CTG) cell viability assay in RS4;11-BCL2-D103E cells. Format: cell-based. To be noted: 10% FBS, 3 days. Here is the method:
as §1, §2

A further test concerns MV-4-11 cells. The test is described as follows: CCK-8 cell viability assay in MV-4-11 cells. The conditions noted are these: 10% FBS, 3 days. Format: cell-based. In short, it runs like this: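 IC50 values come from vehicle-normalized CCK-8 absorbance at 450 nm, read 1–4 h after reagent addition. Before that, MV-4-11 cells seeded at 20000 per well were cultured 3 days at 37 °C with a compound dilution series.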

The target in the next test is Bcl-2 WT (Homo sapiens, UniProt P10415). Nature of the test: Bcl-2 WT inhibition, fluorescence polarization (Flu-BIM tracer) binding assay. The conditions noted are these: FP; 20 nM Bcl2, 5 nM Flu-BIM, 1 h incubation; read-out: Bcl-2 w.t. (FP).
Sequence of Bcl-2 WT (P10415 whole entry): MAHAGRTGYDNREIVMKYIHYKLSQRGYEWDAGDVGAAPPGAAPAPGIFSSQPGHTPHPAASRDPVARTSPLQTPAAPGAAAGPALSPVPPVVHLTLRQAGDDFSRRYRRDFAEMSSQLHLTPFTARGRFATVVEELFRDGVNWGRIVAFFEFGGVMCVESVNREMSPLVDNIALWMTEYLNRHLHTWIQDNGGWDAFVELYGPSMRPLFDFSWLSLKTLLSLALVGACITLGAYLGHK

Consider `CC1(C)CCC(CN2CCN(c3ccc(C(=O)NS(=O)(=O)c4ccc(NCC5CCOCC5)c([N+](=O)[O-])c4)c(Oc4cnc5[nH]ccc5c4)c3)CC2)=C(c2ccc(Cl)cc2)C1` [ABT-199, Venetoclax, reference compound], for which the pIC50 in the test on RS4; 11Bcl-2-V156D cells (72 h) was 6.17; with RS4; 11Bcl-2-G101V cells (72 h) it was 5.57; with RS4; 11Bcl-2-D103E cells (72 h), 5.82; in the test with MV-4-11 cells (Homo sapiens, MV4-11, 72 h), 7.42.
In the case of `C[C@H](O)c1cc(F)c(-c2csc(C3=C(CN4CCN(c5ccc(C(=O)NS(=O)(=O)c6ccc(NC[C@H]7CC[C@](C)(O)CC7)c([N+](=O)[O-])c6)c(Oc6cnc7[nH]ccc7c6)c5)CC4)CCC(C)(C)C3)c2)c(F)c1` [Example 84, 2-((1H-pyrrolo[2,3-b]pyridin-5-yl)oxy)-4-(4-((2-(4-(2,6-difluoro-4-((S)-1-hydroxyethyl)phenyl)thiophen-2-yl)-4,4-dimethylcyclohex-1-en-1-yl)methyl)piperazin-1-yl)-N-((4-((((1r,4r)-4-hydroxy-4-methylcyclohexyl)methyl)amino)-3-nitrophenyl)sulfonyl)benzamide], the pIC50 with RS4; 11Bcl-2-V156D cells (72 h) is 8.10; with RS4; 11Bcl-2-G101V cells (72 h), 7.15; in the test on RS4; 11Bcl-2-D103E cells (72 h) it was 7.01; in the test on MV-4-11 cells (Homo sapiens, MV4-11, 72 h) it was 8.15.
With `C[C@@H](O)c1cc(F)c(-c2csc(C3=C(CN4CCN(c5ccc(C(=O)NS(=O)(=O)c6ccc(NC[C@H]7CC[C@](C)(O)CC7)c([N+](=O)[O-])c6)c(Oc6cnc7[nH]ccc7c6)c5)CC4)CCC(C)(C)C3)c2)c(F)c1` [Example 83, 2-((1H-pyrrolo[2,3-b]pyridin-5-yl)oxy)-4-(4-((2-(4-(2,6-difluoro-4-((R)-1-hydroxyethyl)phenyl)thiophen-2-yl)-4,4-dimethylcyclohex-1-en-1-yl)methyl)piperazin-1-yl)-N-((4-((((1r,4r)-4-hydroxy-4-methylcyclohexyl)methyl)amino)-3-nitrophenyl)sulfonyl)benzamide], the pIC50 is 8.10 in the test with RS4; 11Bcl-2-V156D cells (72 h); 7.70 with RS4; 11Bcl-2-G101V cells (72 h); 7.32 in the test on RS4; 11Bcl-2-D103E cells (72 h); 8.70 in the test on MV-4-11 cells (Homo sapiens, MV4-11, 72 h).
Consider `O=C(NS(=O)(=O)c1ccc(NC[C@H]2COCCO2)c([N+](=O)[O-])c1)c1ccc(N2CCN(CC3=C(c4ccc(Cl)cc4)CC4(CCC4)CC3)CC2)cc1Oc1cnc2[nH]ccc2c1` [APG-2575], for which the pIC50 is 6.49 with RS4; 11Bcl-2-V156D cells, 5.61 in the test with RS4; 11Bcl-2-G101V cells, 6.29 in the test on RS4; 11Bcl-2-D103E cells and 7.47 in the test with MV-4-11 cells.
Regarding `CC1(C)CCC(CN2CCN(c3ccc(C(=O)NS(=O)(=O)c4ccc(NC[C@H]5CC[C@](C)(O)CC5)c([N+](=O)[O-])c4)c(Oc4cnc5[nH]ccc5c4)c3)CC2)=C(c2cc(-c3c(F)cc(C(C)(C)O)cc3F)cs2)C1` [Example 63, 2-((1H-pyrrolo[2,3-b]pyridin-5-yl)oxy)-4-(4-((2-(4-(2,6-difluoro-4-(2-hydroxypropan-2-yl)phenyl)thiophen-2-yl)-4,4-dimethylcyclohex-1-en-1-yl)methyl)piperazin-1-yl)-N-((4-((((1r,4r)-4-hydroxy-4-methylcyclohexyl)methyl)amino)-3-nitrophenyl)sulfonyl)benzamide], the pIC50 is 7.79 on Bcl-2 WT; 7.72 with RS4; 11Bcl-2-V156D cells (72 h); 7.85 in the test with RS4; 11Bcl-2-G101V cells (72 h); 6.74 in the test on RS4; 11Bcl-2-D103E cells (72 h); 8.05 in the test with MV-4-11 cells (Homo sapiens, MV4-11, 72 h).
For `CC(C)c1ccccc1-c1csc(C2=C(CN3CCN(c4ccc(C(=O)NS(=O)(=O)c5ccc(NC[C@H]6COCCO6)c([N+](=O)[O-])c5)c(Oc5cnc6[nH]ccc6c5)c4)CC3)CCC(C)(C)C2)c1` [Example 39, (S)—N-((4-(((1,4-dioxan-2-yl)methyl)amino)-3-nitrophenyl)sulfonyl)-2-((1H-pyrrolo[2,3-b]pyridin-5-yl)oxy)-4-(4-((2-(4-(2-isopropylphenyl)thiophen-2-yl)-4,4-dimethylcyclohex-1-en-1-yl)methyl)piperazin-1-yl)benzamide], the pIC50 on Bcl-2 WT was 7.50; in the test on RS4; 11Bcl-2-G101V cells (72 h), 5.64; in the test with MV-4-11 cells (Homo sapiens, MV4-11, 72 h), 6.59.
